Results: US11766470B2, “Manufacture, formulation and dosing of apraglutide” (VectivBio AG, priority 2020, dated 2023)
Square brackets hold non-standard residues; d marks the D form. Peptide text beside a SMILES is read from it. ξ: configuration not given here. Ile(3ξ) = CCC(C)[C@H](N)C(=O)O; Thr(3ξ) = CC(O)[C@H](N)C(=O)O; Nle = CCCC[C@H](N)C(=O)O

Tested on: patients with SBS-IF
Assay: Phase 2 placebo-controlled crossover trial in SBS-IF patients (Example 5): urine output, urine sodium, PS volume, oral fluid intake, hydration parameters, plasma L-citrulline, body composition
Assay type: in vivo, human
Conditions: for Fluid composite effect (increase urine production + reduction PS volume + reduction oral fluid intake): post-hoc
Protocol: The following non-limiting example describes results from a Phase 2 clinical trial in which subjects with SBS-IF were treated with the apraglutide formulations of the present disclosure. This Phase 2 trial investigated the safety and efficacy of 5 and 10 mg apraglutide in patients with SBS-IF.
Eight adult patients with SBS-IF were treated with apraglutide compositions of the present disclosure according to Table 6. Briefly, patients with SBS-IF were administered 5 mg apraglutide of the present disclosure or placebo once a week for four weeks. The patients were then administered 10 mg apraglutide of the present disclosure once a week for four weeks. Additionally, there was a washout period of 6-10 weeks between treatments.
The trial described in Example 5 was a double-blind, crossover, randomized, placebo-controlled, phase 2 trial followed by an additional treatment period in an open-label regimen. Eight adult patients (aged ≥18 to ≤80 years) with SBS-IF were enrolled in the trial. Patient eligibility was assessed during a screening visit. The main inclusion criteria were: Patients with SBS secondary to surgical resection of the small bowel with a jejuno- or ileostomy, at least 6 months since last bowel resection, a fecal output of at least 1500 g/day as recorded within the last 18 months, and PS-infusions≥3 times per week for ≥12 months according to the patient's medical record. Patients were excluded, if they had clinical signs of activity in inflammatory bowel disease, a history of cancer within ≤5 years or an inadequate hepatic, kidney, or heart function. Patients were also excluded, if they had received native GLP-2 or a GLP-2 analogue within the last 3 months.
The procedures during each treatment period were consistent.
Efficacy assessments were performed for each treatment period of 29 days. Patients received a paper diary for recording PS volume administration, urine collections and oral fluid intakes at specific time points. Patients performed home 48-hour urine collections at baseline (day −2 to 1), immediately after first treatment injection (day 1 to 3), and at the end of the treatment period (day 27-29, […] after the fourth administration of the trial drug). Urine was collected by the patient in a urine container with volume markings and 48-hour urine volumes were reported in the diary. After completing the 48-hour collection, patients transferred approximately 100 mL of urine from the container to a sample which was delivered at the next patient visit. The amount of sodium excreted per 48 hours was then calculated as the concentration of sodium in the sample multiplied by the total volume of urine collected. During each urine collection, weekly PS volume and content and daily oral fluid intake were kept constant. Since they were kept constant, increases in urine volume were a sign of increased fluid absorption. […] Patients were to adhere to their drinking menu during each urine collection and the concomitant 48-hour oral fluid intake was reported in the diary during each urine collection.
On day 20-22, patients were informed to record their spontaneous oral fluid intake during 48 hours. This measurement was included to investigate whether increased intestinal absorption was associated with a decrease in their spontaneous oral fluid intake.
Between day 4 and 24, PS volume reductions were allowed if deemed clinically necessary by the investigator. […] PS volume reductions were assessed during day 20-22. Patients returned to their baseline PS volume and content during the end of the treatment urine collection (day 27-29). Concomitant medications including proton-pump inhibitors, loperamide, and opiates were kept unchanged and stable throughout the trial. If necessary, adjustments could be made in the drinking menu and prescribed PS volume and content between treatment periods based on discussions between the patient and the investigator.
Body weight was measured using a levelled platform scale. […]

[1] = 5 mg vs placebo, Part A+B, end of treatment
[2] = 5 mg vs placebo, Part A, day 1-3 after first injection
[3] = 5 mg vs placebo, Part A, day 20-22
[4] = 5 mg vs placebo, Part A, day 27-29
[5] = 5 mg vs placebo, Part A, end of treatment
[6] = 10 mg vs placebo, Part A+B, day 1-3 after first injection
[7] = 10 mg vs placebo, Part A+B, day 20-22
[8] = 10 mg vs placebo, Part A+B, day 27-29
[9] = 10 mg vs placebo, Part A+B, end of treatment

`CCCC[C@H](NC(=O)[C@H](CCC(=O)O)NC(=O)[C@H](CC(=O)O)NC(=O)[C@H](CO)NC(=O)[C@H](Cc1ccccc1)NC(=O)[C@H](CO)NC(=O)CNC(=O)[C@H](CC(=O)O)NC(=O)CNC(=O)[C@@H](N)Cc1c[nH]cn1)C(=O)N[C@H](Cc1ccccc1)C(=O)N[C@H](C(=O)N[C@H](C(=O)N[C@@H](CC(C)C)C(=O)N[C@@H](CC(=O)O)C(=O)N[C@@H](CC(C)C)C(=O)N[C@@H](CC(C)C)C(=O)N[C@@H](C)C(=O)N[C@@H](C)C(=O)N[C@@H](CCCNC(=N)N)C(=O)N[C@@H](CC(=O)O)C(=O)N[C@@H](Cc1ccccc1)C(=O)N[C@H](C(=O)N[C@@H](CC(N)=O)C(=O)N[C@@H](Cc1c[nH]c2ccccc12)C(=O)N[C@@H](CC(C)C)C(=O)N[C@H](C(=O)N[C@@H](CCC(N)=O)C(=O)N[C@H](C(=O)N[C@@H](CCCCN)C(=O)N[C@H](C(=O)N[C@H](C(=O)N[C@@H](CC(=O)O)C(N)=O)C(C)O)C(C)CC)C(C)O)C(C)CC)C(C)CC)C(C)CC)C(C)O` (stereo partly drawn) [apraglutide, L-histidyl-glycyl-L-aspartyl-glycyl-L-seryl-L-phenylalanyl-L-seryl-L-aspartyl-L-glutamyl-L-norleucyl-D-phenylalanyl-L-threonyl-Lisoleucyl-L-leucyl-L-aspartyl-L-leucyl-L-leucyl-L-alanyl-L-alanyl-L-arginyl-L-aspartyl-L-phenylalanyl-L-isoleucyl-L-asparaginyl-Ltryptophanyl-L-leucyl-L-isoleucyl-L-glutaminyl-L-threonyl-L-lysyl-L-isoleucyl-L-threonyl-Laspartic acid amide] (H-HGDGSFSDE[Nle][dF][Thr(3ξ)][Ile(3ξ)]LDLLAARDF[Ile(3ξ)]NWL[Ile(3ξ)]Q[Thr(3ξ)]K[Ile(3ξ)][Thr(3ξ)]D-NH2) was tested, and the “Relative body weight, adjusted mean change from baseline” value [1] was 3 (0 to 6); %, the “Relative bone mineral content, adjusted mean change from baseline” value [1] was 0 (−3 to 3); % and the “Relative fat body mass, adjusted mean change from baseline” value [1] was 10 (1 to 18); %. The “Relative lean body mass, adjusted mean change from baseline” value [1] was 2 (−5 to 9); %, the “Relative plasma L-citrulline, adjusted mean change from baseline” value [1] was 65 (15 to 115); % and the “Urea, adjusted mean change from baseline” value [1] was −0.9 (−2.4 to 0.6); mmol/L. For the same molecule, the “Absolute urine output, adjusted mean change from baseline” value [2] was −48 (−696 to 601); mL/day, the “Relative urine output, adjusted mean change from baseline” value [2] was 5 (−38 to 48); % and the “Urine sodium excretion (%), adjusted mean change from baseline” value [2] was 64 (−306 to 433); %. The “Urine sodium excretion, adjusted mean change from baseline” value [2] was 3 (−146 to 152); mmol/day, the “PS volume, adjusted mean change from baseline” value [3] was −94 (−344 to 156); P = .356 mL/day and the “Relative PS volume, adjusted mean change from baseline” value [3] was −13 (−41 to 15); P = .276%. The “Relative oral fluid intake, adjusted mean change from baseline” value [3] was −9 (−18 to 1); P = .068%, the “Absolute urine output, adjusted mean change from baseline” value [4] was 714 mL/day and the “Relative urine output, adjusted mean change from baseline” value [4] was 49%. For the same molecule, the “Urine sodium excretion (%), adjusted mean change from baseline” value [4] was 189 (−350 to 729); P = .270%, the “Urine sodium excretion, adjusted mean change from baseline” value [4] was 66 (−69 to 201); P = .171 mmol/day and the “Body weight, adjusted mean change from baseline” value [5] was 1.9 (−0.8 to 4.5); kg. The “Bone mineral content, adjusted mean change from baseline” value [5] was −4 (−132 to 123); g, the “Fat body mass, adjusted mean change from baseline” value [5] was 1.74 (−0.36 to 3.83); kg and the “Lean body mass, adjusted mean change from baseline” value [5] was 0.49 (−4.65 to 5.64); kg. The “Plasma L-citrulline, adjusted mean change from baseline” value [5] was 17.7 (−6.3 to 41.7); μmol/L, the “Relative body weight, adjusted mean change from baseline” value [5] was 3 (−1 to 7); % and the “Relative bone mineral content, adjusted mean change from baseline” value [5] was 0 (−6 to 6); %. The “Relative fat body mass, adjusted mean change from baseline” value [5] was 9 (−5 to 24); %, the “Relative lean body mass, adjusted mean change from baseline” value [5] was 2 (−11 to 15); % and the “Relative plasma L-citrulline, adjusted mean change from baseline” value [5] was 66 (−13 to 145); %. For the same molecule, the “Fluid composite effect (increase urine production + reduction PS volume + reduction oral fluid intake)” value (5 mg vs placebo, Part A+B) was 1,036 mL/day, the “Absolute urine output, adjusted mean change from baseline” value [6] was −64 (−500 to 372); mL/day and the “Relative urine output, adjusted mean change from baseline” value [6] was −6 (−37 to 24); %. The “Urine sodium excretion (%), adjusted mean change from baseline” value [6] was 22 ( −75 to 119); %, the “Urine sodium excretion, adjusted mean change from baseline” value [6] was 3 (−17 to 22); mmol/day and the “Relative PS volume, adjusted mean change from baseline” value [7] was −28 (−51 to −4); %. For the same molecule, the “Relative oral fluid intake, adjusted mean change from baseline” value [7] was −15 (−25 to −5); %, the “Absolute urine output, adjusted mean change from baseline” value [8] was 795 (195 to 1,394); mL/day and the “Relative urine output, adjusted mean change from baseline” value [8] was 34 (−4 to 71); %. For the same molecule, the “Urine sodium excretion (%), adjusted mean change from baseline” value [8] was 432 ( −87 to 951); %, the “Urine sodium excretion, adjusted mean change from baseline” value [8] was 88 (20 to 156); mmol/day and the “Albumin, adjusted mean change from baseline” value [9] was 1.0 (−0.9 to 2.9); g/L. The “Body weight, adjusted mean change from baseline” value [9] was 1.3 (−0.6 to 3.2); kg, the “Bone mineral content, adjusted mean change from baseline” value [9] was 8 (−64 to 81); g and the “CO2 total, adjusted mean change from baseline” value [9] was 1.3 (−1.1 to 3.7); mmol/L. The “Creatinine, adjusted mean change from baseline” value [9] was −5.1 (−22.1 to 11.9); umol/L, the “Fat body mass, adjusted mean change from baseline” value [9] was 0.33 (−1.20 to 1.85); kg and the “Hematocrit, adjusted mean change from baseline” value [9] was 0.2 (−0.7 to 1.0); vol/fr. For the same molecule, the “Lean body mass, adjusted mean change from baseline” value [9] was 0.76 (−2.47 to 3.99); kg, the “Plasma L-citrulline, adjusted mean change from baseline” value [9] was 14.0 (−2.3 to 30.3); μmol/L and the “Protein, adjusted mean change from baseline” value [9] was −0.7 (−4.7 to 3.3); g/L. For the same molecule, the “Relative body weight, adjusted mean change from baseline” value [9] was 2 (−1 to 5); %, the “Relative bone mineral content, adjusted mean change from baseline” value [9] was 0 (−3 to 3); % and the “Relative fat body mass, adjusted mean change from baseline” value [9] was 2 (−7 to 11); %. The “Relative lean body mass, adjusted mean change from baseline” value [9] was 2 (−6 to 9); %, the “Relative plasma L-citrulline, adjusted mean change from baseline” value [9] was 42 (−10 to 94); % and the “Urea, adjusted mean change from baseline” value [9] was −0.6 (−2.2 to 1.0); mmol/L. The “Fluid composite effect (increase urine production + reduction PS volume + reduction oral fluid intake)” value (10 mg vs placebo, Part A+B) was 1,630 mL/day.
